Consider five compounds from paper PMC3568244 (Molecular and cellular endocrinology, 2012).

Assay in all cases: spectral binding titration
Assay [1] has as its target T1, CYP11A1 (Bos taurus, UniProt P00189).
T1 sequence (P00189 40-520): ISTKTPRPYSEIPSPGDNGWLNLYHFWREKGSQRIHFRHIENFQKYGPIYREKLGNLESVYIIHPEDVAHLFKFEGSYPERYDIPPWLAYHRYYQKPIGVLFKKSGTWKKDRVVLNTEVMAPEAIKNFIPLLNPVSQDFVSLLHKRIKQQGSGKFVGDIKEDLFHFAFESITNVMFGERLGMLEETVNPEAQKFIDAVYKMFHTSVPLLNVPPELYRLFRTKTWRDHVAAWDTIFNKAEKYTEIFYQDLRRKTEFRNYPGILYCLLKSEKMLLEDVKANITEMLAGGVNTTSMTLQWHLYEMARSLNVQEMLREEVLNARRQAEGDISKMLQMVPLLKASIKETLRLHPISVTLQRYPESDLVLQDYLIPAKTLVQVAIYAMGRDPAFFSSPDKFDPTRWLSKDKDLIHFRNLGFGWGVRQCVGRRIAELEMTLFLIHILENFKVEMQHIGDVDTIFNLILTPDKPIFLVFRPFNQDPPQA

Assay [2] deals with T1, CYP11A1. This is another data set of the same source.
Assay [3] deals with T1, CYP11A1. This is another data set of the same source.

SMILES strings stand for the structures. Read-outs that look alike come from different tables or passages of the source.

As to `CC(=O)N1CCN(c2ccc(OC[C@H]3CO[C@@](Cn4ccnc4)(c4ccc(Cl)cc4Cl)O3)cc2)CC1` (racemic) [Ketoconazole], at CYP11A1 [1], binding was characterised by a dissociation constant (Kd) of 1.5 µM. In other words, the single-digit micromolar range.
Regarding `NC(=NCc1ccc(Cl)cc1)SCCCc1cnc[nH]1` [Clobenpropit], binding on CYP11A1 [2] was characterised by a dissociation constant (Kd) of 18 µM.
On the same count and under the same terms, next, `Cc1cccc([C@H](C)c2cnc[nH]2)c1C` [Dexmedetomidine]: 7 µM.
In the case of `CC[C@@H]([C@H](C)O)n1ncn(-c2ccc(N3CCN(c4ccc(OC[C@@H]5CO[C@@](Cn6cncn6)(c6ccc(F)cc6F)C5)cc4)CC3)cc2)c1=O` [Posaconazole], on CYP11A1 [1], the dissociation constant Kd (usually the concentration at which binding is half-saturated) came out at 1 µM.
As for `CC(C)CCC[C@@H](C)[C@H]1CC[C@H]2[C@@H]3CC=C4C[C@@H](O)CC[C@]4(C)[C@H]3CC[C@]12C` [cholesterol], the Kd on CYP11A1 [3] was found to be 0.2 µM. This counts as sub-micromolar.
